Results: PubChem BioAssay (NCI)
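Values below derive from 48-hour exposures of cells grown in 96-well plates, with endpoints linearly interpolated between the two concentrations bracketing the appropriate inhibition level. TGI is the concentration that stops growth completely.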

Columns and labels:
Test in all cases: DTP human tumour cell line panel, 48 h
SK-MEL-2 melanoma = tested on: SK-MEL-2 melanoma
MOLT-4 leukemia = tested on: MOLT-4 leukemia
LXFL 529 NSCLC = tested on: LXFL 529 NSCLC
SF-539 CNS = tested on: SF-539 CNS
DMS 273 small cell lung = tested on: DMS 273 small cell lung
U251 CNS = tested on: U251 CNS
786-0 renal = tested on: 786-0 renal
HOP-92 NSCLC = tested on: HOP-92 NSCLC
ACHN renal = tested on: ACHN renal
UACC-257 melanoma = tested on: UACC-257 melanoma
SF-268 CNS = tested on: SF-268 CNS
OVCAR-8 ovarian = tested on: OVCAR-8 ovarian
CCRF-CEM leukemia = tested on: CCRF-CEM leukemia
OVCAR-4 ovarian = tested on: OVCAR-4 ovarian
NCI-H226 lung = tested on: NCI-H226 lung
LOX IMVI melanoma = tested on: LOX IMVI melanoma
XF 498 CNS = tested on: XF 498 CNS
SN12C renal = tested on: SN12C renal
M19-MEL melanoma = tested on: M19-MEL melanoma
SNB-78 CNS = tested on: SNB-78 CNS
SR leukemia = tested on: SR leukemia
TK-10 renal = tested on: TK-10 renal
K-562 leukemia = tested on: K-562 leukemia
DLD-1 colon = tested on: DLD-1 colon
DMS 114 small cell lung = tested on: DMS 114 small cell lung
EKVX NSCLC = tested on: EKVX NSCLC
A549 NSCLC = tested on: A549 NSCLC
SK-OV-3 ovarian = tested on: SK-OV-3 ovarian
SNB-19 CNS = tested on: SNB-19 CNS
SK-MEL-28 melanoma = tested on: SK-MEL-28 melanoma
SF-295 CNS = tested on: SF-295 CNS
HOP-18 NSCLC = tested on: HOP-18 NSCLC
RXF 393 renal = tested on: RXF 393 renal
HT29 colon = tested on: HT29 colon
NCI-H23 lung = tested on: NCI-H23 lung
UACC-62 melanoma = tested on: UACC-62 melanoma
HL-60(TB) leukemia = tested on: HL-60(TB) leukemia
SW-620 colon = tested on: SW-620 colon
SK-MEL-5 melanoma = tested on: SK-MEL-5 melanoma
UO-31 renal = tested on: UO-31 renal
HOP-62 NSCLC = tested on: HOP-62 NSCLC
CAKI-1 renal = tested on: CAKI-1 renal
NCI-H460 lung = tested on: NCI-H460 lung
IGROV1 ovarian = tested on: IGROV1 ovarian
NCI-H522 lung = tested on: NCI-H522 lung
KM12 colon = tested on: KM12 colon
OVCAR-5 ovarian = tested on: OVCAR-5 ovarian
COLO 205 colon = tested on: COLO 205 colon
HCC-2998 colon = tested on: HCC-2998 colon
A498 renal = tested on: A498 renal
OVCAR-3 ovarian = tested on: OVCAR-3 ovarian
HCT-116 colon = tested on: HCT-116 colon
HCT-15 colon = tested on: HCT-15 colon
RPMI-8226 leukemia = tested on: RPMI-8226 leukemia
SNB-75 CNS = tested on: SNB-75 CNS
KM20L2 colon = tested on: KM20L2 colon

Q: Which results are given for `N#Cc1ccccc1C(Cl)(Cl)c1cnccn1`?
A: TGI (SK-MEL-2 melanoma): > 100 µM; TGI (MOLT-4 leukemia): 69.7 µM; TGI (LXFL 529 NSCLC): > 100 µM; TGI (SF-539 CNS): > 100 µM; TGI (DMS 273 small cell lung): > 100 µM; TGI (U251 CNS): > 100 µM; TGI (786-0 renal): 32.3 µM; TGI (HOP-92 NSCLC): 65.4 µM; TGI (ACHN renal): > 100 µM; TGI (UACC-257 melanoma): > 100 µM; TGI (SF-268 CNS): > 100 µM; TGI (OVCAR-8 ovarian): 77 µM; TGI (CCRF-CEM leukemia): 50.3 µM; TGI (OVCAR-4 ovarian): > 100 µM; TGI (NCI-H226 lung): > 100 µM; TGI (LOX IMVI melanoma): 61 µM; TGI (XF 498 CNS): 33.8 µM; TGI (SN12C renal): > 100 µM; TGI (M19-MEL melanoma): > 100 µM; TGI (SNB-78 CNS): > 100 µM; TGI (SR leukemia): > 100 µM; TGI (TK-10 renal): > 100 µM; TGI (K-562 leukemia): > 100 µM; TGI (DLD-1 colon): > 100 µM; TGI (DMS 114 small cell lung): 43 µM; TGI (EKVX NSCLC): > 100 µM; TGI (A549 NSCLC): > 100 µM; TGI (SK-OV-3 ovarian): > 100 µM; TGI (SNB-19 CNS): > 100 µM; TGI (SK-MEL-28 melanoma): > 100 µM; TGI (SF-295 CNS): > 100 µM; TGI (HOP-18 NSCLC): > 100 µM; TGI (RXF 393 renal): > 100 µM; TGI (HT29 colon): > 100 µM; TGI (NCI-H23 lung): > 100 µM; TGI (UACC-62 melanoma): > 100 µM; TGI (HL-60(TB) leukemia): 70.2 µM; TGI (SW-620 colon): > 100 µM; TGI (SK-MEL-5 melanoma): 87.3 µM; TGI (UO-31 renal): > 100 µM; TGI (HOP-62 NSCLC): > 100 µM; TGI (CAKI-1 renal): > 100 µM; TGI (NCI-H460 lung): > 100 µM; TGI (IGROV1 ovarian): > 100 µM; TGI (NCI-H522 lung): 38.4 µM; TGI (KM12 colon): > 100 µM; TGI (OVCAR-5 ovarian): > 100 µM; TGI (COLO 205 colon): > 100 µM; TGI (HCC-2998 colon): > 100 µM; TGI (A498 renal): > 100 µM

Q: Which TGI (SK-MEL-2 melanoma) does the source give for `COC12CCC(=O)C=C1c1ccccc1N2C(C)=O` (stereo not drawn) here?
A: > 100 µM

Q: What about the TGI (MOLT-4 leukemia) of the same molecule?
A: > 100 µM

Q: What about the TGI (LXFL 529 NSCLC) of the same molecule?
A: > 100 µM

Q: What about the TGI (SF-539 CNS) of the same molecule?
A: > 100 µM

Q: And the TGI (DMS 273 small cell lung)?
A: > 100 µM

Q: What about the TGI (U251 CNS) of the same molecule?
A: > 100 µM

Q: And the TGI (786-0 renal)?
A: > 100 µM

Q: And the TGI (ACHN renal)?
A: > 100 µM

Q: And the TGI (OVCAR-3 ovarian)?
A: > 100 µM

Q: And the TGI (UACC-257 melanoma)?
A: > 100 µM

Q: And the TGI (OVCAR-8 ovarian)?
A: > 100 µM

Q: What about the TGI (CCRF-CEM leukemia) of the same molecule?
A: > 100 µM

Q: What about the TGI (OVCAR-4 ovarian) of the same molecule?
A: > 100 µM

Q: What about the TGI (XF 498 CNS) of the same molecule?
A: > 100 µM

Q: And the TGI (SN12C renal)?
A: > 100 µM

Q: What about the TGI (M19-MEL melanoma) of the same molecule?
A: > 100 µM

Q: And the TGI (SNB-78 CNS)?
A: > 100 µM

Q: What about the TGI (SR leukemia) of the same molecule?
A: > 100 µM

Q: And the TGI (K-562 leukemia)?
A: > 100 µM

Q: What about the TGI (HCT-116 colon) of the same molecule?
A: > 100 µM

Q: What about the TGI (DLD-1 colon) of the same molecule?
A: > 100 µM

Q: What about the TGI (DMS 114 small cell lung) of the same molecule?
A: > 100 µM

Q: What about the TGI (EKVX NSCLC) of the same molecule?
A: > 100 µM

Q: And the TGI (A549 NSCLC)?
A: > 100 µM

Q: What about the TGI (SK-OV-3 ovarian) of the same molecule?
A: > 100 µM

Q: And the TGI (SNB-19 CNS)?
A: > 100 µM

Q: What about the TGI (SK-MEL-28 melanoma) of the same molecule?
A: > 100 µM

Q: What about the TGI (SF-295 CNS) of the same molecule?
A: > 100 µM

Q: And the TGI (HOP-18 NSCLC)?
A: > 100 µM

Q: And the TGI (RXF 393 renal)?
A: > 100 µM

Q: And the TGI (HT29 colon)?
A: > 100 µM

Q: What about the TGI (NCI-H23 lung) of the same molecule?
A: > 100 µM

Q: And the TGI (UACC-62 melanoma)?
A: > 100 µM

Q: And the TGI (HCT-15 colon)?
A: > 100 µM

Q: And the TGI (HL-60(TB) leukemia)?
A: > 100 µM

Q: And the TGI (SW-620 colon)?
A: > 100 µM

Q: What about the TGI (UO-31 renal) of the same molecule?
A: > 100 µM

Q: What about the TGI (HOP-62 NSCLC) of the same molecule?
A: > 100 µM

Q: What about the TGI (CAKI-1 renal) of the same molecule?
A: > 100 µM

Q: What about the TGI (NCI-H460 lung) of the same molecule?
A: > 100 µM

Q: What about the TGI (IGROV1 ovarian) of the same molecule?
A: > 100 µM

Q: And the TGI (RPMI-8226 leukemia)?
A: > 100 µM

Q: And the TGI (SNB-75 CNS)?
A: > 100 µM

Q: What about the TGI (KM12 colon) of the same molecule?
A: > 100 µM

Q: And the TGI (COLO 205 colon)?
A: > 100 µM

Q: And the TGI (KM20L2 colon)?
A: > 100 µM

Q: What about the TGI (HCC-2998 colon) of the same molecule?
A: > 100 µM

Q: What about the TGI (A498 renal) of the same molecule?
A: > 100 µM
